Test [1] has as its target GST-Syk Full Protein (human) (Homo sapiens, UniProt P43405). The experiment in a line: Syk kinase inhibition test (HTRF method). The test is classed as biochemical. As to conditions: HTRF, 100 μM ATP, 30 min room temperature, average; read-out: sykHTRF ave IC50. Summed up:
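Human GST-Syk full-length (6.4 nM) phosphorylated biotin-EDPDYEWPSA-NH2 (250 nM) with 100 μM ATP in HEPES pH 7.0/MgCl2 buffer, 2% DMSO, 30 min at room temperature. EDTA stop, then HTRF detection (streptavidin-XL665, Eu anti-phosphotyrosine) after 1 h; 665/620 ratio read.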
On the technique in general: TR-FRET usually uses a lanthanide donor and a delayed reading to cut background.

Test [2] concerns cultured human mast cells. In words: Degranulation inhibition test using cultured human mast cells (IgE cross-linking, β-Hexosaminidase release). The following applies: Mast cell; cultured human mast cells, anti-hIgE stimulation, β-Hexosaminidase index, average; read-out: human degranulation ave. IC50. The test is classed as cell-based. Summed up:
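CD34+ cord-blood cells cultured ≥8 weeks with SCF/IL-6/IL-3; FcεRI primed 5 days with rhIL-4 (1 ng/mL) and hIgE (0.5 μg/mL). Compound (0.1% DMSO) preincubated 10 min at 37 °C, then anti-IgE (final 10 μg/mL) 30 min; released β-hexosaminidase read at 405 nm versus total lysate, IC50 (M).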

For orientation: IC50 means the concentration needed to halve the response being measured.

For `Cc1ccnc(Nc2cccc(-c3cnc(CNC(=O)CO)s3)n2)c1` [Compound A-201], the IC50 in test [1] and in test [2] was 100 to 1000 nM in each case.
In the case of `CC(=O)N[C@H]1CC[C@H](c2ncc(-c3cccc(Nc4cc(C)ccn4)n3)s2)CC1` [Compound A-202, N-(trans-4-{5-[6-(4-methylpyridin-2-ylamino)pyridin-2-yl]thiazol-2-yl}cyclohexyl)acetamide], the values for the IC50 in test [1] and in test [2] were less than 100 nM and greater than 1000 nM, respectively.
For `COC(=O)[C@H]1CC[C@H](c2ncc(-c3cccc(Nc4cc(Cl)ccn4)n3)s2)CC1` [Compound A-203], in that order: 100 to 1000 nM and 100 to 1000 nM.
In the same order, the values of `O=C(O)[C@H]1CC[C@H](c2ncc(-c3cccc(Nc4cc(Cl)ccn4)n3)s2)CC1` [Compound A-204, trans-4-{5-[6-(4-chloropyridin-2-ylamino)pyridin-2-yl]thiazol-2-yl}cyclohexanecarboxylic acid] are less than 100 nM and 100 to 1000 nM.
For `Cc1ccnc(Nc2cccc(-c3cnc(CCO)s3)n2)c1` [Compound A-205, 2-{5-[6-(4-methylpyridin-2-ylamino)pyridin-2-yl]thiazol-2-yl}ethanol], in that order: less than 100 nM and 100 to 1000 nM.
As for `Cc1ccnc(Nc2cccc(-c3cnc(COC(=O)NC[C@H]4CC[C@H](C(=O)O)CC4)s3)n2)c1` [Compound A-206], the IC50 in test [1] and in test [2] was greater than 1000 nM throughout.
With `Cc1ccnc(Nc2cccc(-c3cnc(CNC[C@H]4CC[C@H](C(=O)O)CC4)s3)n2)c1` [Compound A-207], the IC50 was 100 to 1000 nM in test [1] and greater than 1000 nM in test [2].
Consider `Cc1ccnc(Nc2cccc(-c3cnc(CNC[C@H]4CC[C@H](CO)CC4)s3)n2)c1` [Compound A-208], for which the IC50 in test [1] is 100 to 1000 nM; in test [2], greater than 1000 nM.
Consider `Cc1ccnc(Nc2cccc(-c3cnc(CN4CCN(C)CC4)s3)n2)c1` [Compound A-209], for which the IC50 in test [1] was 100 to 1000 nM; in test [2] it was greater than 1000 nM.
For `CC(=O)NC1CCN(Cc2ncc(-c3cccc(Nc4cc(C)ccn4)n3)s2)CC1` [Compound A-210], in that order: greater than 1000 nM and greater than 1000 nM.
For `Cc1ccnc(Nc2cccc(-c3cnc([C@H]4CC[C@H](CO)CC4)s3)n2)c1` [Compound A-211, (trans-4-{5-[6-(4-methylpyridin-2-ylamino)pyridin-2-yl]thiazol-2-yl}cyclohexyl)methanol], the IC50 in test [1] is less than 100 nM; in test [2], 100 to 1000 nM.
In the same order, the values of `CC(=O)N[C@@H](C)c1ncc(-c2cccc(Nc3cc(C(C)=O)ccn3)n2)s1` [Compound A-212] are 100 to 1000 nM and 100 to 1000 nM.
For `COC(=O)[C@H]1CC[C@H](c2ncc(-c3cccc(Nc4cc5ccccc5cn4)n3)s2)CC1` [Compound A-213], in that order: greater than 1000 nM and 100 to 1000 nM.
Consider `COc1ccc(NCc2ncc(-c3cccc(Nc4cc(C)ccn4)n3)s2)cc1` [Compound A-214], for which the IC50 in test [1] is 100 to 1000 nM; in test [2], greater than 1000 nM.
For `O=C(O)[C@H]1CC[C@H](c2ncc(-c3cccc(Nc4cc5ccccc5cn4)n3)s2)CC1` [Compound A-215, trans-4-{5-[6-(isoquinolin-3-ylamino)pyridin-2-yl]thiazol-2-yl}cyclohexanecarboxylic acid], in that order: less than 100 nM and 100 to 1000 nM.
For `Cc1ccnc(Nc2cccc(-c3cnc(CNCCO)s3)n2)c1` [Compound A-216], in that order: 100 to 1000 nM and greater than 1000 nM.
For `Cc1ccnc(Nc2cccc(-c3cnc(CN4CCN(CCO)CC4)s3)n2)c1` [Compound A-217], in that order: 100 to 1000 nM and greater than 1000 nM.
As to `Cc1ccnc(Nc2cccc(-c3cnc(CCc4ccc(N)cc4)s3)n2)c1` [Compound A-218], the IC50 in test [1] and in test [2] was 100 to 1000 nM in each case.
`Cc1ccnc(Nc2cccc(-c3cnc([C@H]4CC[C@H](CN)CC4)s3)n2)c1` [Compound A-219, trans-4-{5-[6-(4-methylpyridin-2-ylamino)pyridin-2-yl]thiazol-2-yl}cyclohexylmethylamine]: the IC50 was less than 100 nM in test [1] and greater than 1000 nM in test [2].
Consider `CC(=O)Nc1ccc(CCc2ncc(-c3cccc(Nc4cc(C)ccn4)n3)s2)cc1` [Compound A-220], for which the concentration for half-maximal inhibition (IC50) in test [1] and in test [2] was 100 to 1000 nM each time.
With `Cc1ccnc(Nc2cccc(-c3cnc(CCc4ccc(NS(C)(=O)=O)cc4)s3)n2)c1` [Compound A-221], the IC50 in test [1] was 100 to 1000 nM; in test [2], greater than 1000 nM.
For `Cc1ccnc(Nc2cccc(-c3cnc(CC(=O)OC(C)(C)C)s3)n2)c1` [Compound A-222], in that order: 100 to 1000 nM and greater than 1000 nM.
As for `Cc1ccnc(Nc2cccc(-c3cnc(CCc4ccc(C(=O)N5C[C@@H](O)[C@@H](O)C5)cc4)s3)n2)c1` [Compound A-223, ((3R,4S)-3,4-dihydroxypyrrolidin-1-yl)-[4-(2-{5-[6-(4-methylpyridin-2-ylamino)pyridin-2-yl]thiazol-2-yl}ethyl)phenyl]methanone], the half-maximal inhibitory concentration (IC50) in test [1] was less than 100 nM; in test [2], 100 to 1000 nM.
As to `Cc1ccnc(Nc2cccc(-c3cnc(Cc4ccc(C(=O)O)cc4)s3)n2)c1` [Compound A-224], the IC50 in test [1] was 100 to 1000 nM; in test [2], greater than 1000 nM.
Regarding `Cc1ccnc(Nc2cccc(-c3cnc([C@H]4CC[C@H](C(=O)N5CC[C@H](O)[C@@H](O)C5)CC4)s3)n2)c1` [Compound A-225], the IC50 in test [1] and in test [2] was 100 to 1000 nM throughout.
As for `Cc1ccnc(Nc2cccc(-c3cnc([C@H]4CC[C@H](C(=O)N5C[C@H](O)C[C@@H](O)C5)CC4)s3)n2)c1` [Compound A-226], the IC50 in test [1] and in test [2] was 100 to 1000 nM in each case.
For `Cc1ccnc(Nc2cccc(-c3cnc([C@H]4CC[C@H](C(=O)N5C[C@H](O)C[C@H](O)C5)CC4)s3)n2)c1` [Compound A-227], the 50% inhibitory concentration (IC50) in test [1] and in test [2] was 100 to 1000 nM each time.
In the case of `CC(=O)NC[C@H]1CC[C@H](c2ncc(-c3cccc(Nc4cc(C)ccn4)n3)s2)CC1` [Compound A-228, N-(trans-4-{5-[6-(4-methylpyridin-2-ylamino)pyridin-2-yl]thiazol-2-yl}cyclohexylmethyl)acetamide], the IC50 is less than 100 nM in test [1] and 100 to 1000 nM in test [2].
In the same order, the values of `Cc1ccnc(Nc2cccc(-c3cnc([C@H]4CC[C@H](CNS(C)(=O)=O)CC4)s3)n2)c1` [Compound A-229, N-(trans-4-{5-[6-(4-methylpyridin-2-ylamino)pyridin-2-yl]thiazol-2-yl}cyclohexylmethyl)methanesulfonamide] are less than 100 nM and 100 to 1000 nM.
For the compound `Cc1ccnc(Nc2cccc(-c3cnc(CC(=O)N4CCC(O)CC4)s3)n2)c1` [Compound A-230], the figures for the IC50 in test [1] and in test [2] were 100 to 1000 nM and greater than 1000 nM, respectively.
For `Cc1ccnc(Nc2cccc(-c3cnc(C)s3)n2)c1` [Compound A-231], in that order: 100 to 1000 nM and 100 to 1000 nM.
Regarding `Cc1ccnc(Nc2cccc(-c3cnc(Cc4cccs4)s3)n2)c1` [Compound A-232], the concentration for half-maximal inhibition (IC50) in test [1] is 100 to 1000 nM; in test [2], greater than 1000 nM.
In the same order, the values of `Cc1ccnc(Nc2cccc(-c3cnc(CCc4ccc(C(=O)N5CCC(O)CC5)cc4)s3)n2)c1` [Compound A-233] are 100 to 1000 nM and 100 to 1000 nM.
Consider `Cc1ccnc(Nc2cccc(-c3cnc(Cc4ccc(C(=O)N5CCC(O)CC5)cc4)s3)n2)c1` [Compound A-234], for which the IC50 in test [1] and in test [2] was greater than 1000 nM each time.
On to `Cc1ccnc(Nc2cccc(-c3cnc([C@H]4CC[C@H](CNC(=O)CO)CC4)s3)n2)c1` [Compound A-235, 2-hydroxy-N-(trans-4-{5-[6-(4-methylpyridin-2-ylamino)pyridin-2-yl]thiazol-2-yl}cyclohexylmethyl)acetamide], for which the IC50 in test [1] is less than 100 nM; in test [2], 100 to 1000 nM.
In the same order, the values of `Cc1ccnc(Nc2cccc(-c3cnc(CN4CCC(NS(C)(=O)=O)CC4)s3)n2)c1` [Compound A-236] are 100 to 1000 nM and 100 to 1000 nM.
For `Cc1ccnc(Nc2cccc(-c3cnc(CCc4ccc(NC(=O)CO)cc4)s3)n2)c1` [Compound A-237, 2-hydroxy-N-[4-(2-{5-[6-(4-methylpyridin-2-ylamino)pyridin-2-yl]thiazol-2-yl}ethyl)phenyl]acetamide], in that order: less than 100 nM and 100 to 1000 nM.
In the same order, the values of `Cc1ccnc(Nc2cccc(-c3cnc([C@H]4CC[C@H](C(=O)N5CCCC(O)C5)CC4)s3)n2)c1` (stereo partly shown) [Compound A-238] are 100 to 1000 nM and 100 to 1000 nM.
As to `Cc1ccnc(Nc2cccc(-c3cnc([C@H]4CC[C@H](C(=O)N5CC[C@H](O)[C@H](O)C5)CC4)s3)n2)c1` [Compound A-239, ((3R,4S)-3,4-dihydroxypiperidin-1-yl)-(trans-4-{5-[6-(4-methylpyridin-2-ylamino)pyridin-2-yl]thiazol-2-yl}cyclohexyl)methanone], the 50% inhibitory concentration (IC50) in test [1] is less than 100 nM; in test [2], 100 to 1000 nM.
Consider `Cc1ccnc(Nc2cccc(-c3cnc([C@H]4CC[C@H](C(=O)N5CC[C@@H](O)C5)CC4)s3)n2)c1` [Compound A-241, ((R)-3-hydroxypyrrolidin-1-yl)-(trans-4-{5-[6-(4-methylpyridin-2-ylamino)pyridin-2-yl]thiazol-2-yl}cyclohexyl)metanone], for which the IC50 in test [1] is less than 100 nM; in test [2] it was greater than 1000 nM.
For `Cc1ccnc(Nc2cccc(-c3cnc([C@H]4CC[C@H](C(=O)N5CCC(CO)CC5)CC4)s3)n2)c1` [Compound A-242], the IC50 in test [1] and in test [2] was 100 to 1000 nM in each case.
